Source: patent US6350596B2, “Method for producing L-phenylalanine” (Ajinomoto Co., Inc., priority 2000, dated 2002)

Tests used:
[1] = system: Methylophilus methylotrophus AS-1 (NCIB 10515; ATCC 53528); experiment: Sensitivity of the wild type strain to phenylalanine analogs on 121(Fe2)-agar medium; format: cell-based; conditions: for amount at which the wild type strain (strain AS-1) can not grow: usually, under the conditions described in Examples
From the text: To be resistant to an phenylalanine analog means that the bacterium can grow in the presence of the phenylalanine analog in the amount at which the wild type strain (for example, strain AS-1) can not grow. The amount varies depending on the kinds of the phenylalanine analog.
To be resistant to L-phenylalanine means that the bacterium can grow in the presence of L-phenylalanine in the amount at which the wild type strain (for example, strain AS-1) can not grow. The amount is usually 8 g/l under the conditions described in Examples mentioned below.
To be resistant to cinnamic acid means that the bacterium can grow in the presence of cinnamic acid in the amount at which the wild type strain (for example, strain AS-1) can not grow. The amount is usually 50 mg/l under the conditions described in Examples mentioned below.
The 10^8 c.f.u./ml of M. methylotrophus bacteria were plated and grown at +30° C. for 3 days. […] The several crystals of N-methyl-N′-nitro-N-nitrosoguanidin (hereinafter abbreviated to NG) mutagen was placed in the middle of the plate. After 4-5 days at 30° C., the plates were analyzed.

[2] = system: Methylophilus methylotrophus pFp^R phe^R mutant strain No. 227-16; format: cell-based
From the text: The new mutants which were resistant to 1 g/L of meta-fluorophenylalanine (hereinafter abbreviated to mFp^R) were isolated from the strain No. 227-16 after NG-mutagenesis as it was described above.

[3] = system: M. methylotrophus pFp^R mutant No. 227; experiment: Growth of pFp^R mutant on agarized 121-medium with L-phenylalanine; format: cell-based, Methylophilus methylotrophus; conditions: added into the agarized 121-medium

Structure (SMILES) | concentration that totally inhibited the growth of the bacteria lawn ([1]; 121(Fe2)-agar medium, 10^8 c.f.u./ml plated, +30° C., 3 days) [mg/mL] | amount at which the wild type strain (strain AS-1) can not grow [1] [g/L] | concentration to which the strain was resistant ([2]; strain No. 227-16) [M] | concentration that totally inhibited the growth [3] [M] | growth of the strain in the presence of the analog ([2]; strain No. 227-16, 1 g/l of the analog)
NC(Cc1ccc(F)cc1)C(=O)O (racemic) [DL-p-fluorophenylalanine] | 1 | 2 | – | – | –
N[C@@H](Cc1ccccc1)C(=O)O [L-phenylalanine] | – | 8 | 0.05 | 0.1 | –
O=C(O)C=Cc1ccccc1 [cinnamic acid] | – | 0.05 | – | – | –
N[C@@H](Cc1cccc(F)c1)C(=O)O [m-fluorophenylalanine] | – | 1 | – | – | only a slight growth
